From patent US9663465B2, “Acetylcholinesterase inhibitors and promnesiant serotonin 5-HT4 receptor agonists, their methods of preparation and the pharmaceutical compositions containing the same” (UNIVERSITE DE CAEN, priority 2013, dated 2017)
Where two headings read alike, the source gives them in different places.

Legend:
5-HT4 receptors = 5-HT4 receptors (Cavia porcellus (Guinea pig), UniProt O70528); assay: Affinity as regards 5-HT4 receptors: competition against [3H]-GR113808 on striatal membranes; assay type: binding
Sequence of 5-HT4 receptors (O70528 whole entry): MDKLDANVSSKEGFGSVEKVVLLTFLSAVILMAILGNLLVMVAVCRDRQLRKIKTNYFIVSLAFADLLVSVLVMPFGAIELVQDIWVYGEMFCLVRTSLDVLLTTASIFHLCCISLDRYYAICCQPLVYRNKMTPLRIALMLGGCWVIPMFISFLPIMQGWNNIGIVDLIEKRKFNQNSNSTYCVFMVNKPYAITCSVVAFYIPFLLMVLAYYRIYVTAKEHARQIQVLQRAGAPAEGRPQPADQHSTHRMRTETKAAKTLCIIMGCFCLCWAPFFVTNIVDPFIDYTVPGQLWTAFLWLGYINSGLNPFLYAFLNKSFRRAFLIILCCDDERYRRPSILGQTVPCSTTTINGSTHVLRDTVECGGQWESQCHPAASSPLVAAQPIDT

[1] = biological target: human acetylcholinesterase (Homo sapiens (Human), UniProt P22303); assay: biochemical; assay type: biochemical; conditions: acetylcholinesterase from human erythrocytes
Sequence of human acetylcholinesterase (P22303 32-574 with tags or gaps limits assumed): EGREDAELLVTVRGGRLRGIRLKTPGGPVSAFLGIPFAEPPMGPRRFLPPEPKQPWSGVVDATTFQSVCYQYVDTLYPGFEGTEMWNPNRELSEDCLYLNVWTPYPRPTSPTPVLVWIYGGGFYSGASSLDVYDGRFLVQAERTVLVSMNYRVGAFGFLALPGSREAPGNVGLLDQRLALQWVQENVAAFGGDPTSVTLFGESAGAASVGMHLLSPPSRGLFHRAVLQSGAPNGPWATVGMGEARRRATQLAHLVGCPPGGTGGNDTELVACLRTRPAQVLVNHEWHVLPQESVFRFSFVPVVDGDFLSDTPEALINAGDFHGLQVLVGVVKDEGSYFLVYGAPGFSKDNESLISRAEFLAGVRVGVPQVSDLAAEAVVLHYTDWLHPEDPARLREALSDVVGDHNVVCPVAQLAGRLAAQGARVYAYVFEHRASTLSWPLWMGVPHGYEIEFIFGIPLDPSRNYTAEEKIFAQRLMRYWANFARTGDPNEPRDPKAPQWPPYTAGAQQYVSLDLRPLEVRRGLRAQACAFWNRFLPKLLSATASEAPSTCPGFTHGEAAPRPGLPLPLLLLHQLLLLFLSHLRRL
Protocol: 100 μL of a 0.3 mM 5,5-dithiobis(2-nitrobenzoic acid) (DTNB) solution in a pH 7.4 phosphate buffer are introduced into a 96-well plate, followed by 50 μL of compound to be tested in solution in DMSO and 50 μL of enzyme solution. After 5 min of preincubation, the reaction is initiated by injecting 50 μL of 10 mM acetylthiocholine iodide solution. […] Donepezil is used as a reference product.

5-HT4 receptor = 5-HT4 receptor (Homo sapiens (Human), UniProt Q13639); assay: Agonist nature as regards the 5-HT4 receptor: accumulation of intracellular cyclic AMP in stably transfected CHO cells; assay type: cell-based; conditions: percentage of agonist effect in relation to serotonin
Sequence of 5-HT4 receptor (Q13639 whole entry): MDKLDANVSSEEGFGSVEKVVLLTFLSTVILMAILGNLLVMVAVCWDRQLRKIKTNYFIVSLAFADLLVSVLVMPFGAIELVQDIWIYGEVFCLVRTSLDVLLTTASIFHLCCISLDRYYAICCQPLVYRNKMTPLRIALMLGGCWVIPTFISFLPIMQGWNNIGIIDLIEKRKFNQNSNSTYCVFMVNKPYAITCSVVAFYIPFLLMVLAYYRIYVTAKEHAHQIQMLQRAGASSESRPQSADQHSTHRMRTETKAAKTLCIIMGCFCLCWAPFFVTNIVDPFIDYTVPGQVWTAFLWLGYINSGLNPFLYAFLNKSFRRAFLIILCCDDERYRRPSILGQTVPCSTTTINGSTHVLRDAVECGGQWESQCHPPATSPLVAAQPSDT

[2] = biological target: peripheral site of eeAChE (Electrophorus electricus (Electric eel) (Gymnotus electricus), UniProt O42275); assay type: binding
Sequence of peripheral site of eeAChE (O42275 whole entry, looked up): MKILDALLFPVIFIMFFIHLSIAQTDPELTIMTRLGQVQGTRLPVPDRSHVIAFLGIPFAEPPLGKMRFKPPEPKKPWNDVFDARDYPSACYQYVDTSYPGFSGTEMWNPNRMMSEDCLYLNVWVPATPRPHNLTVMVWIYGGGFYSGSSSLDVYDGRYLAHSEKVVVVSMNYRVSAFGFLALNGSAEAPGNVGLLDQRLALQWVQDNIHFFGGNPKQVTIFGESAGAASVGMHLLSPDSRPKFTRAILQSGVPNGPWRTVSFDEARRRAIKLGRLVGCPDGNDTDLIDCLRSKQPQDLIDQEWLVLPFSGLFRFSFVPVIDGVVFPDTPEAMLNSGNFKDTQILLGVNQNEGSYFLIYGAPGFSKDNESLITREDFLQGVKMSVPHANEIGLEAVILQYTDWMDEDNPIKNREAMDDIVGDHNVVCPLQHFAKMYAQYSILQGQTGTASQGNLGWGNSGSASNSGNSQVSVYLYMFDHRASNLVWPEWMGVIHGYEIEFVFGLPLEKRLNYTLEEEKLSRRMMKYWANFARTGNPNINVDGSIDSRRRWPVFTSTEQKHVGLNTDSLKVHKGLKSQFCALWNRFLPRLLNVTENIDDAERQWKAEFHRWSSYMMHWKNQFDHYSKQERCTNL
Protocol: When propidium diiodide binds to the peripheral site of AChE, it produces an increase in fluorescence which can be used as proof of its binding to the enzyme. Fluorescence measurements are made in 200 μL of solution in 96-well plates using a Tecan Infinite M2000 microplate reader. […] 50 μL of micromolar solution of propidium diiodide are added before measuring fluorescence. […] Each test is repeated at least three times.

male NMRI mice = assay: Object recognition test; assay type: in vivo; conditions: intraperitoneal, 30 minutes before the acquisition session
Protocol: The tests are performed using male NMRI mice of around 3 months old at the time of the tests.
The object recognition test is based on the spontaneous preference of rodents for novelty, without bringing food deprivation or electric shock into play.
The device comprises a square PVC enclosure (33×33×20 cm, illuminated at 10 lux in the center) with black surfaces. The test is performed in 2 phases: one habituation phase, allowing the animals to become habituated to the test environment (enclosure, room, experimenter), the other a memory performance assessment phase. A camera is positioned above the device and connected to a video-tracking system (ViewPoint®). During the behavioral tests, the experimenter is not present in the experimentation room but remains in an adjacent room that houses the video-tracking system.
After a habituation phase (Day 1, individual exposure for 5 minutes to the open-field with no objects), the memory performance assessment phase begins on the 2nd day and is made up of 2 sessions, one the presentation session and the other the test session. […] The exploration time of each object, A1 and A2 respectively, as well as the time required to achieve the exploration criterion are measured. […] The time required to achieve the exploration criterion as well as the exploration time of the new object are measured and the latter is compared to the chance level (15 s). […]

[3] = 10^-5 M solution of compound, eeAChE, propidium diiodide fluorescence

Structure (SMILES) | Agonistic effect % (5-HT4 receptor) | % Propidium Displacement [2, 3] | other results
CCCCN1CCC(CCC(=O)c2cc(Br)c(N)cc2OC)CC1 [Compound 2, 1-(4-amino-5-bromo-2-methoxyphenyl)-3-[1-butyl-4-piperidyl]propan-1-one] |  |  | Ki (5-HT4 receptors): 8.9 nM; IC50 [1]: 445 nM
COc1cc(N)c(F)cc1C(=O)CCC1CCN(CC2CCCCC2)CC1 [Compound 5, 1-(4-amino-5-fluoro-2-methoxyphenyl)-3-[1-(cyclohexylmethyl)-4-piperidyl]propan-1-one] | 16% | 22% | 
COc1cc(N)c(Cl)cc1C(=O)CCC1CCN(CC2CCCC2)CC1 [Compound 8, 1-(4-amino-5-chloro-2-methoxyphenyl)-3-[1-(cyclopentylmethyl)-4-piperidyl]propan-1-one] | 12% | 20% | 
COc1cc(N)c(Cl)cc1C(=O)CCC1CCN(CC2CCCCC2)CC1 [Compound 9, 1-(4-amino-5-chloro-2-methoxyphenyl)-3-[1-(cyclohexylmethyl)-4-piperidyl]propan-1-one] | 22% | 22% | dose of maximum effect on object recognition performance (male NMRI mice): 0.3 mg/kg; object recognition performance compared to the control batch (male NMRI mice; 24 hours intersession): improvement in object recognition performance compared to the control batch
COc1cc(N)c(Cl)cc1C(=O)CCC1CCN(CC2CCCCCC2)CC1 [Compound 12, 1-(4-amino-5-chloro-2-methoxyphenyl)-3-[1-(cycloheptylmethyl)-4-piperidyl]propan-1-one] | 21% | 20% | 
COc1cc(N)c(Br)cc1C(=O)CCC1CCN(CC2CCCCC2)CC1 [Compound 14, 1-(4-amino-5-bromo-2-methoxyphenyl)-3-[1-(cyclohexylmethyl)-4-piperidyl]propan-1-one] |  |  | % Propidium Displacement [2]: 20%
COc1cc(N)c(Cl)cc1C(=O)CCC1CCN(CCC2CCCCC2)CC1 [Compound 16, 1-(4-amino-5-chloro-2-methoxyphenyl)-3-[1-(cyclohexylethyl)-4-piperidyl]propan-1-one] |  |  | % Propidium Displacement [2]: 21%
COc1cc(N)c(Cl)cc1C(=O)NCC1CCN(CC2CCCCC2)CC1 [Compound 17, 4-amino-5-chloro-[[1-(cyclohexylmethyl)-4-piperidyl]methyl]-2-methoxybenzamide] |  |  | Ki (5-HT4 receptors; 0.1 nM [3H]-GR113808, guinea pig striatal membranes, read-out: Ki): 2.3 nM; IC50 [1]: 3730 nM
Nc1cc(OCCF)c(C(=O)CCC2CCN(CC3CCCCC3)CC2)cc1Cl [Compound 23, 1-[4-amino-5-chloro-2-(2-fluoroéthoxy)phenyl]-3-[1-(cyclohexylmethyl)-4-piperidyl]propan-1-one] |  | 22% | 
COCCCN1CCC(NC(=O)c2cc(Cl)c(N)c3c2OCC3)CC1 [prucalopride, reference compound] | 100% |  | 
